Results from ChEMBL document CHEMBL5143740, “Discovery of Novel Phosphoinositide-3-Kinase α Inhibitors with High Selectivity, Excellent Bioavailability, and Long-Acting Efficacy for Gastric Cancer” (J Med Chem, 2022).
Activity calls are given as the source filed them. The rule behind the calls is not given here.

Key:
MGC-803 [1] = experiment: Inhibition of PI3K signalling pathway in human MGC-803 cells assessed as reduction in P70S6K phosphorylation at 2 to 8 uM by Western blotting analysis; assay type: cell-based; conditions: dose 2-8 µM
[2] = Tmax in Sprague-Dawley rat at 1 mg/kg, iv measured after 24 hrs; assay type: ADME, organism-based; conditions: in vivo
MGC-803 [3] = experiment: Antiproliferative activity against human MGC-803 cells assessed as inhibition of cell growth incubated for 72 hrs by CCK8 assay; assay type: functional, cell-based; conditions: MGC-803, 72 h
[4] = Cmax in Sprague-Dawley rat at 1 mg/kg, iv measured after 24 hrs; assay type: ADME, organism-based; set-up: time 24 hrs, dose 1 mg/kg, route iv; conditions: in vivo
MGC-803 [5] = experiment: Induction of apoptosis in human MGC-803 cells assessed as viable cells at 2 uM incubated for 36 hrs by annexin V-FITC based flow cytometry analysis (reference value: 94.51 %); assay type: functional; conditions: read-out: Activity
Homo sapiens [6] = species on record: Homo sapiens; experiment: Selectivity index, ratio of IC50 for inhibition of PI3Kdelta (unknown origin) to IC50 for inhibition of PI3Kalpha (unknown origin)
MGC-803 [7] = experiment: Induction of apoptosis in human MGC-803 cells assessed as necrotic cells at 2 uM incubated for 36 hrs by annexin V-FITC based flow cytometry analysis (reference value: […]); assay type: functional
MGC-803 [8] = experiment: Induction of apoptosis in human MGC-803 cells assessed as early apoptotic cells at 8 uM incubated for 36 hrs by annexin V-FITC based flow cytometry analysis (reference value: 2.49 %); assay type: functional
MGC-803 [9] = experiment: Induction of apoptosis in human MGC-803 cells assessed as late apoptotic cells at 4 uM incubated for 36 hrs by annexin V-FITC based flow cytometry analysis (reference value: 2.61 %); assay type: functional
[10] = AUC (0 to t) in Sprague-Dawley rat at 1 mg/kg, iv measured after 24 hrs; assay type: ADME, organism-based; set-up: time 24 hrs, dose 1 mg/kg, route iv; conditions: in vivo
Homo sapiens [11] = species on record: Homo sapiens; experiment: Selectivity index, ratio of IC50 for inhibition of PI3Kbeta (unknown origin) to IC50 for inhibition of PI3Kalpha (unknown origin)
MGC-803 [12] = experiment: Induction of apoptosis in human MGC-803 cells assessed as early apoptotic cells at 2 uM incubated for 36 hrs by annexin V-FITC based flow cytometry analysis (reference value: 2.49 %); assay type: functional
[13] = Half life in Sprague-Dawley rat at 10 mg/kg, po measured after 24 hrs; assay type: ADME, organism-based; conditions: in vivo
[14] = biological target: Phosphatidylinositol 4,5-bisphosphate 3-kinase catalytic subunit alpha isoform (Homo sapiens, UniProt P42336); experiment: Inhibition of PI3Kalpha (unknown origin) using PIP2 as substrate in presence of ATP measured after 1 hr by ADP-Glo assay
Phosphatidylinositol 4,5-bisphosphate 3-kinase catalytic subunit alpha isoform, sequence (P42336 whole entry, canonical isoform): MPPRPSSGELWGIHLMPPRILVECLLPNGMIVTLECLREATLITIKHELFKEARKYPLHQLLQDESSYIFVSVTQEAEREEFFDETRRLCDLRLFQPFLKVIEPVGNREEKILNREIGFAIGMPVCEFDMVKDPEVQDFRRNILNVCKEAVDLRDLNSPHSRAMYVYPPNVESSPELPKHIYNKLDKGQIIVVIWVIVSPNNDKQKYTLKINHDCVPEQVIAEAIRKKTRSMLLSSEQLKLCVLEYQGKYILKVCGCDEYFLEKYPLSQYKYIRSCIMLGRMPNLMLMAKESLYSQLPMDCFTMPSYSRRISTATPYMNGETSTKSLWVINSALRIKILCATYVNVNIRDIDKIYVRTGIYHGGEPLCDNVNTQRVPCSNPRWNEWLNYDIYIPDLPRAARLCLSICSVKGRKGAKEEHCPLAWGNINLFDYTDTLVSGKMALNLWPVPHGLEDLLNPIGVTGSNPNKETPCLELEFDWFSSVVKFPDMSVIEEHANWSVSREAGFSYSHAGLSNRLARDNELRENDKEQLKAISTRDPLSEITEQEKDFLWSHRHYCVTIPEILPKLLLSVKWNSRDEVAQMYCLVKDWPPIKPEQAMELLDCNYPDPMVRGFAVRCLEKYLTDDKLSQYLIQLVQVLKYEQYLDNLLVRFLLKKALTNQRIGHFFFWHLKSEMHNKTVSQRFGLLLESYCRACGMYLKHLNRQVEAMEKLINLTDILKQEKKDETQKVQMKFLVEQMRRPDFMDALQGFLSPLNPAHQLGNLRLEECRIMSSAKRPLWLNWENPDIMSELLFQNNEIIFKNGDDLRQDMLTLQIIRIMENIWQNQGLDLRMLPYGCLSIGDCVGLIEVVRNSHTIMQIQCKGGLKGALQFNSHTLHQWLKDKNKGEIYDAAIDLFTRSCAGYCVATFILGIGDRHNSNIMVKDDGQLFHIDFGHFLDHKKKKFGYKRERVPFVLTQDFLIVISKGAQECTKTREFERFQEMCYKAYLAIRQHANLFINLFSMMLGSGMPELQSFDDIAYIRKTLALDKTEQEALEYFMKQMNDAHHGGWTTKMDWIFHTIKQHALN

[15] = biological target: Phosphatidylinositol 4,5-bisphosphate 3-kinase catalytic subunit beta isoform (Homo sapiens, UniProt P42338); experiment: Inhibition of PI3Kbeta (unknown origin) in presence of [33P]-ATP incubated for 2 hrs by hotspot kinase assay
Phosphatidylinositol 4,5-bisphosphate 3-kinase catalytic subunit beta isoform, sequence (P42338 whole entry, canonical isoform): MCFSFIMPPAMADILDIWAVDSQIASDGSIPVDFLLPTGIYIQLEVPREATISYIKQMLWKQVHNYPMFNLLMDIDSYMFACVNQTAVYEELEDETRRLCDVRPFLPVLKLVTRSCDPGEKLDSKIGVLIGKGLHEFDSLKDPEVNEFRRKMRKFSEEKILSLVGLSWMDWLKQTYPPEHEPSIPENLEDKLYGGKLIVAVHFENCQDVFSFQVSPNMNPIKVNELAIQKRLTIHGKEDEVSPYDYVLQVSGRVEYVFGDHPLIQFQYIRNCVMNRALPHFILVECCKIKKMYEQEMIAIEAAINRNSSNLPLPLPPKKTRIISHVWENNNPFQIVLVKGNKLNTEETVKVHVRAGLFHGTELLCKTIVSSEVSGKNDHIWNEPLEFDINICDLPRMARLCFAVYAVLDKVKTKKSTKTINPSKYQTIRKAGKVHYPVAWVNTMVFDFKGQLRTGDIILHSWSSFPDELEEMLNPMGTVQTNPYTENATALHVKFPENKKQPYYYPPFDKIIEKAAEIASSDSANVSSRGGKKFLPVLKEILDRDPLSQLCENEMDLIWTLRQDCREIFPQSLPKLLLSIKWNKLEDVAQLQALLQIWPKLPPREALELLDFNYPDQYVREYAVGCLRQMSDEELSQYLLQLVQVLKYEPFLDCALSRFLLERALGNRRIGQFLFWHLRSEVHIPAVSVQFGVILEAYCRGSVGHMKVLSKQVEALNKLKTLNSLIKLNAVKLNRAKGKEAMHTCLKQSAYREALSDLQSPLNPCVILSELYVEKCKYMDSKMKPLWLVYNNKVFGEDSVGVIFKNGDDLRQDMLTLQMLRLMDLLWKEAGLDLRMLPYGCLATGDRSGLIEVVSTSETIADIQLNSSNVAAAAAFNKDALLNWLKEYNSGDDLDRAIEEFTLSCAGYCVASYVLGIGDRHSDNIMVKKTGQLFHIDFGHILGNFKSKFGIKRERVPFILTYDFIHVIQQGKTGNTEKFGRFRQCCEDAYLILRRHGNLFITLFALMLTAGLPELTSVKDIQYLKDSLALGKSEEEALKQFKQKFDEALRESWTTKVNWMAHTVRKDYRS

PC-3 = experiment: Antiproliferative activity against human PC-3 cells assessed as inhibition of cell growth incubated for 72 hrs by CCK8 assay; assay type: functional, cell-based; conditions: PC-3, 72 h
[16] = Toxicity in BALB/c mouse xenografted with human MG C-803cells assessed as effect on body weight at 10 mg/kg, IP administered every day for 3 week; assay type: organism-based; conditions: in vivo, 504 h, time 3 weeks
MGC-803 [17] = experiment: Downregulation of PI3Kalpha protein expression in human MG C-803 cells at 2 to 8 uM by Western blotting analysis; assay type: functional, cell-based; conditions: dose 2-8 µM
[18] = Toxicity in BALB/c mouse xenografted with human MG C-803cells assessed as effect on body weight at 30 mg/kg, po administered every day for 3 week in presence of taxol; assay type: organism-based; conditions: in vivo, 504 h, time 3 weeks
MGC-803 [19] = experiment: Induction of apoptosis in human MGC-803 cells assessed as viable cells at 8 uM incubated for 36 hrs by annexin V-FITC based flow cytometry analysis (reference value: 94.51 %); assay type: functional; conditions: read-out: Activity
MGC-803 [20] = experiment: Induction of apoptosis in human MGC-803 cells assessed as early apoptotic cells at 4 uM incubated for 36 hrs by annexin V-FITC based flow cytometry analysis (reference value: 2.49 %); assay type: functional
SK-OV-3 = experiment: Antiproliferative activity against human SK-OV-3 cells assessed as inhibition of cell growth incubated for 72 hrs by CCK8 assay; assay type: functional, cell-based; conditions: SK-OV-3, 72 h
MGC-803 [21] = experiment: Antitumor activity against human MGC-803 cells xenografted in BALB/c nude mouse assessed as tumor growth inhibition at 10 mg/kg, ip administered every day for 3 weeks; assay type: functional; conditions: MGC-803, 504 h, read-out: TGI
MGC-803 [22] = experiment: Antimetastatic activity against human MGC-803 cells assessed as […] of E-cadherin expression in at 2 to 8 uM by Western blot analysis; assay type: functional, cell-based; conditions: dose 2-8 µM
[23] = AUC (0 to t) in Sprague-Dawley rat at 10 mg/kg, po measured after 24 hrs; assay type: ADME, organism-based; set-up: dose 10 mg/kg, time 24 hrs, route po; conditions: in vivo
MOLT-4 = experiment: Antiproliferative activity against human MOLT-4 cells assessed as inhibition of cell growth incubated for 72 hrs by CCK8 assay; assay type: functional, cell-based; conditions: MOLT-4, 72 h
[24] = Clearance in Sprague-Dawley rat at 1 mg/kg, iv measured after 24 hrs; assay type: ADME, organism-based; conditions: in vivo
[25] = AUC (0 to infinitive) in Sprague-Dawley rat at 1 mg/kg, iv measured after 24 hrs; assay type: ADME, organism-based; set-up: time 24 hrs, dose 1 mg/kg, route iv; conditions: in vivo

Structure (SMILES): Nc1nc2cc(-c3nc(N4CCOCC4)nc(N4CCOCC4)n3)ccc2o1
- inhibition (MGC-803 [1]): Active
- Tmax [2]: 10.8 s
- IC50 (MGC-803 [3]): 430 nM
- Cmax [4]: 455 ng/mL
- viability at 2 µM (MGC-803 [5]): 87%
- Ratio IC50 (Homo sapiens [6]): 34
- Activity (MGC-803 [7]): 0.95%
- Activity (MGC-803 [8]): 57.88%
- Activity (MGC-803 [9]): 5.01%
- AUC(0-t) at 24 h [10]: 2240 ng·h/mL
- Ratio IC50 (Homo sapiens [11]): 33
- Activity (MGC-803 [12]): 7.52%
- half-life [13]: > 10 h
- IC50 [14]: 4.4 nM
- IC50 [15]: 146 nM
- IC50 (PC-3): 430 nM
- Activity [16]: Non-Toxic
- inhibition (MGC-803 [17]): Active
- Activity [18]: Non-Toxic
- viability at 8 µM (MGC-803 [19]): 37.2%
- Activity (MGC-803 [20]): 31.31%
- IC50 (SK-OV-3): 430 nM
- inhibition in vivo at 10 mg/kg (MGC-803 [21]): 41.5%
- inhibition (MGC-803 [22]): Active
- AUC(0-t) at 24 h [23]: 36700 ng·h/mL
- IC50 (MOLT-4): 430 nM
- clearance [24]: 5.72 mL/min/kg
- AUC(0-inf) [25]: 2920 ng·h/mL
